Where a name gives a salt, the structure may show the parent alone. Read-outs that look alike come from different tables or passages of the source.
What was measured:
NZB5 = experiment: Cellular growth inhibition (3H-thymidine), NZB5; assay type: cell-based; conditions: Homo sapiens, five days, 3H-thymidine incorporation, maximum 20 μM
Protocol: (§1) The compounds were evaluated against two early passage human cell lines NZB5 and NZOV9, whose development and culture have been described [Marshall et al, Oncol. Res. 2004, 14, 297]. The cells were grown in ITS medium (α-modified minimal essential medium supplemented insulin, transferrin, selenite and 5% fetal bovine serum) and grown on 96-well tissue culture plates under an atmosphere of 5% O2, 5% CO2 and 90% N2. Individual wells contained 500-1000 cells (depending on the growth rate) in a volume of 150 μL. Compounds were added at 10-fold concentration steps to a maximum of 20 μM and plates were incubated for five days, with ^3H-thymidine being added over the last 6 h. Cells were harvested and incorporated radioactivity measured. Duplicate samples were analyzed for each compound dose with multiple control samples. Data were fitted by a least-squares method to an exponential of the form y=y0+ae^−bx, where y is the radioactivity (corrected for background and normalized to 100% of the control) x is the radiation dose, and y0, a and b are variables, and the IC50 value defined as the compound concentration reducing ^3H-thymidine levels by 50%.

p110δ/p85 = p110δ/p85 (Homo sapiens, UniProt O00329); experiment: Inhibition of isolated enzyme, PI 3-kinase p110δ/p85; assay type: biochemical; conditions: recombinant enzyme, 100 μM ATP, average of two experiments
Sequence of p110δ/p85 (O00329 whole entry, species assumed): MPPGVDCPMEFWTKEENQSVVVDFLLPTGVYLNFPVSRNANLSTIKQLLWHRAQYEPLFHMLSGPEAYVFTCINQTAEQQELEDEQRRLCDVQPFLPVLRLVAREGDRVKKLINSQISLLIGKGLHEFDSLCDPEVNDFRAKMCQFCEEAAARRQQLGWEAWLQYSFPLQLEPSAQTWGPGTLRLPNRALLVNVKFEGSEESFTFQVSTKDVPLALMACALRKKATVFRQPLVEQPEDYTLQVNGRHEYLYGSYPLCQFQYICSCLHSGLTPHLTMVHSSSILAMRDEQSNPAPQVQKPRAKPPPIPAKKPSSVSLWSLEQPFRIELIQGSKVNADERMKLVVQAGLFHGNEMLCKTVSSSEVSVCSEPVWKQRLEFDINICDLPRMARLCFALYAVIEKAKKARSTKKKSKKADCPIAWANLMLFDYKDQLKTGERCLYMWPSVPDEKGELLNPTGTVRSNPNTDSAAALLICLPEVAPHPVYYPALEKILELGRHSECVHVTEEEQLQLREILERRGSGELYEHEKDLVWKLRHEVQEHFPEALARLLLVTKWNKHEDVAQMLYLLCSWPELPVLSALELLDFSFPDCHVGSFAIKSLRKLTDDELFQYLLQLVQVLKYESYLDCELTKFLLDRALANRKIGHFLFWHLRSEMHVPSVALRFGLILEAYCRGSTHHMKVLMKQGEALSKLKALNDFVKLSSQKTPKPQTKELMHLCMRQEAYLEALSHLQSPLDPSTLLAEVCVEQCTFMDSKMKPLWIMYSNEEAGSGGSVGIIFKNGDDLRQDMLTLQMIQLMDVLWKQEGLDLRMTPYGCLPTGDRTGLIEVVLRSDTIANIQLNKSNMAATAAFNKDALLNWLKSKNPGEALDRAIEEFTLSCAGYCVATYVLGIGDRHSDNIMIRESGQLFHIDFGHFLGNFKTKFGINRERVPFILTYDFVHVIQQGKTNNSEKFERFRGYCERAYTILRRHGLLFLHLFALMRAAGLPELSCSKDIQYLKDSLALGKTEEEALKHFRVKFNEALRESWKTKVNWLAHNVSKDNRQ
Sequence of p110δ/p85 (P27986 whole entry partner, species assumed): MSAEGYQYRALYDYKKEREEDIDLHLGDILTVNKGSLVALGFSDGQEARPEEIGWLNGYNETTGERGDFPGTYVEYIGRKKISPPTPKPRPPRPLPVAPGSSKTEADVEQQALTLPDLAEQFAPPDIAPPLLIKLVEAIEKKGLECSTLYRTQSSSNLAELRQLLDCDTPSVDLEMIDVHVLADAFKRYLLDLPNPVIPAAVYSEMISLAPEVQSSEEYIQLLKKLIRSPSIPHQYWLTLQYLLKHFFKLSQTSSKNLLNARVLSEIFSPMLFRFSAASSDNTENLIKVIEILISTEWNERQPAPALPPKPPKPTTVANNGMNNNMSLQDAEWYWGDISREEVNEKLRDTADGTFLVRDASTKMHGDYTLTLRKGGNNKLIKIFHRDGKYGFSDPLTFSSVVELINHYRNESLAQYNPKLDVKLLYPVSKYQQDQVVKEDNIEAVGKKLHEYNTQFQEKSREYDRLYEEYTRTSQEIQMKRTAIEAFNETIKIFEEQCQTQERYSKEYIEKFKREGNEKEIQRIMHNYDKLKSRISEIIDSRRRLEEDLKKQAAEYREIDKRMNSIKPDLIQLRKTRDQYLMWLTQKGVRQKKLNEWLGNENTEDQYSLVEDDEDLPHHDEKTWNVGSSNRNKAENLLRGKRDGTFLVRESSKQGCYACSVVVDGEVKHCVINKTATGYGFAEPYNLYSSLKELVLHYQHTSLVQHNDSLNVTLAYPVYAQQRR
Protocol: (§2) Compounds were evaluated for their ability to inhibit the Class I PI 3-kinase enzymes p110δ/p85, p110α/p85 and p110β/p85. Reaction mixtures comprising 0.1 μg of recombinant enzyme, 10 μg of L-α-phosphatidylinositol, the compound (DMSO only or DMSO+compound to a final concentration of 1%), 2× Lipid Kinase Buffer (40 mM Tris-HCl pH 7.4, 200 mM NaCl, 1 mM EDTA) were activated by the addition of an ATP mix (5 mM MgCl2, 100 μM ATP, 0.1 μL [γ^33P]ATP). […] Firstly, 200 μL of chloroform/methanol (1:1) was added, the biphasic reactions mixed and centrifuged briefly, and the inorganic phase was removed and discarded.

p110α/p85 = p110α/p85 (Homo sapiens, UniProt P42336); experiment: Inhibition of isolated enzyme, PI 3-kinase p110α/p85
Sequence of p110α/p85 (P42336 whole entry, species assumed): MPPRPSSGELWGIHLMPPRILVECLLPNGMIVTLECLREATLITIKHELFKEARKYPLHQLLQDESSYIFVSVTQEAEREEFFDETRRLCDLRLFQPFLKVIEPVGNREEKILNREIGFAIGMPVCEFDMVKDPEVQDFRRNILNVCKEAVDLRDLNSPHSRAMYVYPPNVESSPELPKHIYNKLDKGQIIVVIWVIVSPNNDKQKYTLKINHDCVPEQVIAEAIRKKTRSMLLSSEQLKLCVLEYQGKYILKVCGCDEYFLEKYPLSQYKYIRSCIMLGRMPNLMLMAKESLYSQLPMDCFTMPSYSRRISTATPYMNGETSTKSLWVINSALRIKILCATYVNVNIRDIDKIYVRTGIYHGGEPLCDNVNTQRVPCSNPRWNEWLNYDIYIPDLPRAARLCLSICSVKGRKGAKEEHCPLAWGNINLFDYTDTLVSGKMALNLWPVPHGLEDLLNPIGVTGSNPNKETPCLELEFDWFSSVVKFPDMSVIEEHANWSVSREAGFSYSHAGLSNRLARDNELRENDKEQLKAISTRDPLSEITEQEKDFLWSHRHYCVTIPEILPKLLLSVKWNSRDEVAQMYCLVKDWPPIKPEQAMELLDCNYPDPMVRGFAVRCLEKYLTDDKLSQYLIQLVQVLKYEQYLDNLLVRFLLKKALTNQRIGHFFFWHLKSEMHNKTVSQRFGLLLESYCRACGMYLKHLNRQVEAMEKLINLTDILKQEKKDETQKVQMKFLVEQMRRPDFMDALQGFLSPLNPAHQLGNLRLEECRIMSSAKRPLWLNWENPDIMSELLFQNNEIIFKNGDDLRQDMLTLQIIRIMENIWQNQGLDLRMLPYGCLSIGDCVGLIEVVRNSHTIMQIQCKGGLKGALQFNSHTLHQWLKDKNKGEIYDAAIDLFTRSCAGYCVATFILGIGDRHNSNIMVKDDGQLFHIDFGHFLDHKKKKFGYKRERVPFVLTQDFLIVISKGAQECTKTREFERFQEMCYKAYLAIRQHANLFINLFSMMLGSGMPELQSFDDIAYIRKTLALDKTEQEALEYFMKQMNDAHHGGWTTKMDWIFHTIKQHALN
Sequence of p110α/p85 (P27986 whole entry partner, species assumed): as the sequence (P27986 whole entry partner, species assumed) above

NZOV9 = experiment: Cellular growth inhibition (3H-thymidine), NZOV9; assay type: cell-based; conditions: Homo sapiens, five days, 3H-thymidine incorporation, maximum 20 μM
Protocol: as §1

p110β/p85 = p110β/p85 (Homo sapiens, UniProt P42338); experiment: Inhibition of isolated enzyme, PI 3-kinase p110β/p85; assay type: biochemical; conditions: recombinant enzyme, 100 μM ATP, average of two experiments
Sequence of p110β/p85 (P42338 whole entry, species assumed): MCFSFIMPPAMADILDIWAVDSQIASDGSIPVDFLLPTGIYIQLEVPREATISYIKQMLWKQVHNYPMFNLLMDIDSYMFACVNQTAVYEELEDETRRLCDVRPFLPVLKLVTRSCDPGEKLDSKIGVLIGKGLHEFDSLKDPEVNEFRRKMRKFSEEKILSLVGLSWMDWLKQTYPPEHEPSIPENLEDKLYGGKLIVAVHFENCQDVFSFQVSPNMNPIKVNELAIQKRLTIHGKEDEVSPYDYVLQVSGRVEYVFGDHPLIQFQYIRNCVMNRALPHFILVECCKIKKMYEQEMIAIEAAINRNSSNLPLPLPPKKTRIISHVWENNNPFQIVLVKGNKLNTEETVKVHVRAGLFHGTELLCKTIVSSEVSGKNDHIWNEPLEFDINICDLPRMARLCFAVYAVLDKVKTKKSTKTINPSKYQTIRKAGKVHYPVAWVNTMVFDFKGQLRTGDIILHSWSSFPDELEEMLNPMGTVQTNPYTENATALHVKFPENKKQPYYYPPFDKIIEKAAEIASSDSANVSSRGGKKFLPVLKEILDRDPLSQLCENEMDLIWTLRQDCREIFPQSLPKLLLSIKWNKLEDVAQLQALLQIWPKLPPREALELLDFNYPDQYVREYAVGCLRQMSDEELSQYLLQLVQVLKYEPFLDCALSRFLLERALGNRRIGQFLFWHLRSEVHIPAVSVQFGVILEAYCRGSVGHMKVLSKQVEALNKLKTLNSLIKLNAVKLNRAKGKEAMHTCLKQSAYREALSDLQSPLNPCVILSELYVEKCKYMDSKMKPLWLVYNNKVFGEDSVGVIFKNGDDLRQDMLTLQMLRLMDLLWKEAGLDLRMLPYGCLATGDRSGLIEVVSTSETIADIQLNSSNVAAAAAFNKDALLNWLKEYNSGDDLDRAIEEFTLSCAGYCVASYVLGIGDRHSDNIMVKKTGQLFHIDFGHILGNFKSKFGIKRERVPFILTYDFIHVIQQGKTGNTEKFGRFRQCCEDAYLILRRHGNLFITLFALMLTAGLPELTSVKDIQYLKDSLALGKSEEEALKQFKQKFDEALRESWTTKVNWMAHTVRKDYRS
Sequence of p110β/p85 (P27986 whole entry partner, species assumed): as the sequence (P27986 whole entry partner, species assumed) above
Protocol: as §2

[1] = read-out: IC50 (nM) p110α, recombinant enzyme, 100 μM ATP, average of two experiments

Structure (SMILES)	IC50 (NZB5) [µM]	IC50 (p110δ/p85) [nM]	IC50 (p110α/p85; [1]) [nM]	IC50 (NZOV9) [µM]	IC50 (p110β/p85) [nM]	IC50 (p110α/p85) [nM]
Cc1ccc([N+](=O)[O-])cc1S(=O)(=O)N(C)N=Cc1cnn2ccccc12 [E1, N,2-Dimethyl-5-nitro-N′-(pyrazolo[1,5-a]pyridin-3-ylmethylene)benzene-sulfonohydrazide]	0.47	3400	190	0.66		
Cc1ccn2ncc(C=NN(C)S(=O)(=O)c3cc([N+](=O)[O-])ccc3C)c2c1 [E2, N,2-Dimethyl-N′-((5-methylpyrazolo[1,5-a]pyridin-3-yl)methylene)-5-nitro-benzenesulfonohydrazide]	0.05	640	110	0.07	> 1000	
Cc1ccn2nc(C)c(C=NN(C)S(=O)(=O)c3cc([N+](=O)[O-])ccc3C)c2c1 [E4, N′-((2,5-Dimethylpyrazolo[1,5-a]pyridin-3-yl)methylene)-N,2-dimethyl-5-nitrobenzenesulfonohydrazide]	15	> 1000	870	20	> 1000	
COC(=O)c1ccn2ncc(C=NN(C)S(=O)(=O)c3cc([N+](=O)[O-])ccc3C)c2c1 [E6, Methyl 3-((2-methyl-2-(2-methyl-5-nitrophenylsulfonyl)hydrazono)methyl)pyrazolo[1,5-a]pyridine-5-carboxylate]	1.8	790	260	1.5	> 1000	
COc1ccn2ncc(C=NN(C)S(=O)(=O)c3cc([N+](=O)[O-])ccc3C)c2c1 [E9, N′-((5-Methoxypyrazolo[1,5-a]pyridin-3-yl)methylene)-N,2-dimethyl-5-nitrobenzenesulfonohydrazide]	0.94	> 1000	230	0.52	> 1000	
Cc1ccc([N+](=O)[O-])cc1S(=O)(=O)N(C)N=Cc1cnn2ccc(I)cc12 [E15, N′-((5-Iodopyrazolo[1,5-a]pyridin-3-yl)methylene)-N,2-dimethyl-5-nitro-benzenesulfonohydrazide]	0.04	240		0.05	720	23
Cc1ccc([N+](=O)[O-])cc1S(=O)(=O)N(C)N=Cc1cnn2ccc(C3CC3)cc12 [E17, N′-((5-cyclopropylpyrazolo[1,5-a]pyridin-3-yl)methylene)-N,2-dimethyl-5-nitrobenzenesulfonohydrazide]	0.74	> 1000	330	0.67	> 1000	
C#Cc1ccn2ncc(C=NN(C)S(=O)(=O)c3cc([N+](=O)[O-])ccc3C)c2c1 [E18, N′-((5-Ethynylpyrazolo[1,5-a]pyridin-3-yl)methylene)-N,2-dimethyl-5-nitrobenzenesulfonohydrazide]	0.16	43	1.4	0.11	47	
Cc1ccc(F)cc1S(=O)(=O)N(C)N=Cc1cnn2ccc(C#N)cc12 [E27, N′-((5-Cyanopyrazolo[1,5-a]pyridin-3-yl)methylene)-5-fluoro-N,2-dimethylbenzenesulfonohydrazide]	> 20	340	86	14	870	
CC(C)c1ccc([N+](=O)[O-])cc1S(=O)(=O)N(C)N=Cc1cnn2ccc(C#N)cc12 [E33, N′-((5-Cyanopyrazolo[1,5-a]pyridin-3-yl)methylene)-2-isopropyl-N-methyl-5-nitrobenzenesulfonohydrazide]	0.19	40	1.8	0.26	300	
CN(N=Cc1cnn2ccc(C#N)cc12)S(=O)(=O)c1cc([N+](=O)[O-])ccc1Cl [E34, 2-Chloro-N′-((5-cyanopyrazolo[1,5-a]pyridin-3-yl)methylene)-N-methyl-5-nitrobenzenesulfonohydrazide]	0.88			0.35		
Cc1ccc(C#N)cc1S(=O)(=O)N(CCO)N=Cc1cnn2ccc(C#N)cc12 [E40, 5-Cyano-N′-((5-cyanopyrazolo[1,5-a]pyridin-3-yl)methylene)-N-(2-hydroxyethyl)-2-methylbenzenesulfonohydrazide]	3.2	25	3	0.62	23	
Cc1ccc([N+](=O)[O-])cc1S(=O)(=O)NN=Cc1cnn2ccc(C#N)cc12 [E42, N′-((5-Cyanopyrazolo[1,5-a]pyridin-3-yl)methylene)-2-methyl-5-nitro-benzenesulfonohydrazide]	2.5	580	13	4.9	620	
Cc1ccc([N+](=O)[O-])cc1S(=O)(=O)N(CCN(C)C)N=Cc1cnn2ccc(C#N)cc12 [E46, N′-((5-Cyanopyrazolo[1,5-a]pyridin-3-yl)methylene)-N-(2-(dimethylamino)ethyl)-2-methyl-5-nitrobenzenesulfonohydrazide]	0.37	130	30	0.4	200	
Cc1ccc([N+](=O)[O-])cc1S(=O)(=O)N(CCN1CCOCC1)N=Cc1cnn2ccc(C#N)cc12 [E47, N′-((5-Cyanopyrazolo[1,5-a]pyridin-3-yl)methylene)-2-methyl-N-(2-morpholinoethyl)-5-nitrobenzenesulfonohydrazide]	0.51	10	4.5	0.55	230	
CN(N=Cc1cnn2ccc(C#N)cc12)S(=O)(=O)c1cc([N+](=O)[O-])ccc1NCCN1CCOCC1 [E58, N′-((5-Cyanopyrazolo[1,5-a]pyridin-3-yl)methylene)-N-methyl-2-(2-morpholinoethylamino)-5-nitrobenzenesulfonohydrazide hydrochloride]	9.4	26	9	> 20	> 1000	
CN(N=Cc1cnn2ccc(C#N)cc12)S(=O)(=O)c1cc([N+](=O)[O-])ccc1NCCc1c[nH]cn1 [E63, 2-(2-(1H-Imidazol-4-yl)-ethylamino)-N′-((5-cyanopyrazolo[1,5-a]pyridin-3-yl)methylene)-N-methyl-5-nitrobenzenesulfonohydrazide hydrochloride]	0.82	320	55	0.61	> 1000	
CN(N=Cc1cnn2ccc(C#N)cc12)S(=O)(=O)c1cc([N+](=O)[O-])ccc1NCc1cccnc1 [E65, N′-((5-Cyanopyrazolo[1,5-a]pyridin-3-yl)methylene)-N-methyl-5-nitro-2-(pyridin-3-ylmethylamino)benzenesulfonohydrazide hydrochloride]	1.1	440	9.6	0.68	580	
CN(N=Cc1cnn2ccc(C#N)cc12)S(=O)(=O)c1cc([N+](=O)[O-])ccc1OCc1ccccn1 [E71, N′-((5-Cyanopyrazolo[1,5-a]pyridin-3-yl)methylene)-N-methyl-5-nitro-2-(pyridin-2-ylmethoxy)benzenesulfonohydrazide hydrochloride]	1.3	200		0.66	5600	5.8
CN(C)c1ccc([N+](=O)[O-])cc1S(=O)(=O)N(C)N=Cc1cnn2ccc(Br)cc12 [E73, N′-((5-Bromopyrazolo[1,5-a]pyridin-3-yl)methylene)-2-(dimethylamino)-N-methyl-5-nitrobenzenesulfonohydrazide]	0.11	210	3.4	0.31	35	
CN(N=Cc1cnn2ccc(Br)cc12)S(=O)(=O)c1cc([N+](=O)[O-])ccc1OCCN1CCOCC1 [E74, N′-((5-Bromopyrazolo[1,5-a]pyridin-3-yl)methylene)-N-methyl-2-(2-morpholinoethoxy)-5-nitrobenzenesulfonohydrazide hydrochloride]	0.27	350	32	0.55	2900	
CN(C)CCN(C)c1ccc(C#N)cc1S(=O)(=O)N(C)N=Cc1cnn2ccc(C#N)cc12 [E77, 5-Cyano-N′-((5-cyanopyrazolo[1,5-a]pyridin-3-yl)methylene)-2-((2-(dimethylamino)ethyl)(methyl)amino)-N-methylbenzenesulfonohydrazide hydro-chloride]	0.06	380	10	0.05	360	

Source: patent publication US20100226881A1, “PYRAZOLO[1,5-a]PYRIDINES AND THEIR USE IN CANCER THERAPY” (Auckland Uniservices Limited, priority 2007, published 2010)
